Experimental data taken from patent publication US20130165771A1 (priority 2011, published 2013).

What was measured:
[1] = test system: retinal pigmental endothelial cells; conditions: reported (Kodjikian, et al, 2005; Giuseppe, et al, 2008); cited from earlier work
serum proteins = conditions: in the blood stream; cited from earlier work
[2] = test system: eye with CNV complicated with proliferated retinopathy and atrophy of choroidal circulation; experiment: Comparison of Na-fluorescein, ICG and FITC-dextran fundus angiography on the eye with proliferative CNV (Example 9, Table 1); assay type: in vivo, rabbit; conditions: for morphological detail of the CNV, proliferated retinopathy and atrophy of choroidal circulation on the angiogram: Dutch-belted rabbit, same eye, Na-fluorescein 5 mg/kg, ICG 2.5 mg/kg, FITC-dextran 70 kDa 2.5 mg/kg i.v.; for Clarity of angiography / Duration: Choroidal neovascularization / Duration: Normal Choroidal vasculatures / Neovascularization complex / Duration: Retinal neovascularization / Duration: Normal retinal vessels: Table 1
Description: Materials and Methods: the choroidal neovascularization in the eye of Dutch-belted rabbit was induced by sub-retinal injection of vascular growth factors (VGF). The proliferated retinopathy of the choroidal neovascularization membrane and the atrophy of choroidal circulation were the complications of the CNV, occurring at the late stage of the disease. […] The fundus angiograms of IGC were obtained using the fundus image system (Topcon 50 VT) at wavelength of 800 nm.

fundus = conditions: following intravenous injection of the dye; clinical practice; cited from earlier work
[3] = test system: eye with choroidal neovascularization complicated with retinal detachment; experiment: Comparison on the eye with CNV complicated with retinal detachment (Example 7); assay type: in vivo; conditions: rabbit; Na-fluorescein 5 mg/kg i.v.; FITC-dextran 70 kDa 2.5 mg/kg i.v.; same rabbit
Protocol: Materials and Methods: the choroidal neovascularization in the eye of rabbit was induced by sub-retinal injection of vascular growth factors (VGF). The complicated retinal detachment in the eye was caused by leakage of blood from the choroidal newly grown blood vessels and accumulated in the space of the sub-retinal between the detached retinal and the pigmented layer. […] The Na-fluorescence fundus angiography and the FITC-dextran fundus angiography were performed on the same rabbit with one-day interval between these two fundus angiographies.

[4] = test system: eye with retinal neovascularization; experiment: Comparison of FITC-dextran with Na-fluorescein fundus angiography on the eye with retinal neovascularization (Example 10); conditions: monkey eye with retinal neovascularization; following injection of the dye
Protocol: Materials and Methods: Retinal neovascularization in the eye of the monkey was induced by sub-retinal administration of vascular growth factors (VGF). For Na-fluorescence fundus angiography, the 0.5% of Na-fluorescein solution was injected through the antecubital vein at the dose of 5 mg/kg of the body weight. […] The fundus angiograms were obtained using a regular fluorescence fundus system (Topcon 50 VT).

[5] = test system: eyes with choroidal neovascularization (CNV); experiment: Comparison of FITC-dextran with Na-fluorescein fundus angiography on eyes with CNV (Example 6); assay type: in vivo; conditions: rabbit CNV; Na-fluorescein 5 mg/kg i.v.; FITC-dextran 70 kDa 2.5 mg/kg i.v.
Description: Materials and Methods: The choroidal neovascularization (CNV) in rabbit eye was induced by sub-retinal injection of vascular growth factors (VGF).

[6] = test system: eye with choroidal neovascularization complicated with sub-retinal hemorrhage; experiment: Comparison on the eye with CNV complicated with sub-retinal hemorrhage (Example 8); assay type: in vivo; conditions: rabbit; Na-fluorescein 5 mg/kg i.v.; FITC-dextran 70 kDa 2.5 mg/kg i.v.; same rabbit
Protocol: Materials and Methods: the choroidal neovascularization in the rabbit eye was induced by sub-retinal injection of vascular growth factors (VGF). The sub-retinal hemorrhage was caused by the pathological changes of the newly grown blood vessels underneath of the retinal. […] The Na-fluorescence fundus angiography and the FITC-dextran fundus angiography, were performed on the same rabbit with one-day interval between these two fundus angiographies.

[7] = test system: retinal vasculature and choroidal vasculature; experiment: FITC-dextran fundus angiography in normal rabbit eyes (Example 1); assay type: in vivo; conditions: naive rabbit; FITC-dextran 70 kDa, 25 mg/ml, 0.3 ml intravenously
Description: Materials and Methods: The naive rabbits with bodyweight of 1.8-2.5 kilograms were used for this test.

[8] = test system: eye with retinal detachment; experiment: FITC-dextran fundus angiography in the eye with retinal detachment (Example 3); assay type: in vivo; conditions: pigmented rabbit; detachment induced by sub-retinal Healon; FITC-dextran 70 kDa, 25 mg/ml, 0.3 ml i.v.
Protocol: Materials and Methods: The retinal detachment was induced by sub-retinal injection of Healon in the eye of pigmented rabbit. […] The volume of 0.3 ml of the solution was injected intravenously through the marginal vein of the rabbit.

choroidal vasculature = experiment: Effective image duration of FITC-dextran fundus angiography in rabbit (Example 2); assay type: in vivo; conditions: Dutch Belted rabbit, single intravenous injection of FITC-dextran 70 kDa, 25 mg/ml, 0.3 ml
Protocol: The volume of 0.3 ml of the solution was injected through the marginal vein of a Dutch Belted rabbit. […] The angiograms of choroidal vasculature were captured using a regular fluorescence fundus image system (Topcon 50 VT).

[9] = test system: eye with choroidal neovascularization (CNV); experiment: FITC-dextran fundus angiography on the eye with choroidal neovascularization (Example 4); assay type: in vivo; conditions: pigmented rabbit; CNV induced by sub-retinal vascular growth factors; FITC-dextran 70 kDa, 25 mg/ml, 0.3 ml i.v.
Protocol: Materials and Methods: The choroidal neovascularization (CNV) was induced by sub-retinal injection of vascular growth factors in the eye of pigmented rabbit. […] The volume of 0.3 ml of the solution was injected through marginal vein of the rabbit.

Compound	toxic effects on retinal pigmental endothelial cells and outer portion of the retinal tissues [1]	molecules bound to serum proteins (serum proteins)	morphological detail of the CNV, proliferated retinopathy and atrophy of choroidal circulation on the angiogram [2]	Clarity of angiography [2]	Duration: Choroidal neovascularization [2] [min]	Duration: Normal Choroidal vasculatures [2] [min]	Neovascularization complex [2]	best effective image duration (fundus)	morphological detail of the CNV and the retinal detachment on the angiogram [3]	effective image duration [4]	morphological detail of the CNV on the angiogram [5]	Duration: Retinal neovascularization ([2]; then leak out) [s]	Duration: Normal retinal vessels ([2]; then watch out)	morphological detail of the CNV and the hemorrhage on the angiogram [6]	visualization of retinal vasculature and choroidal vasculature in a same fundus angiogram [7]	quality of angiograms of the eye with retinal detachment [8]	effective image duration (choroidal vasculature)	visualization of new blood vessels grown from choroidal [9]	Duration: Normal retinal vessels [2] [h]	Duration: Retinal neovascularization [2] [s]
CC1(C)C(/C=C/C=C/C=C/C=C2\N(CCCCS(=O)(=O)O)c3ccc4ccccc4c3C2(C)C)=[N+](CCCCS(=O)(=O)[O-])c2ccc3ccccc3c21 [ICG, indocyanine green]	toxic effects	98%	able to visualize the structure of the CNV and the injured choroidal vascular networks	poor	3 to 5	3 to 5	good													
O=C([O-])c1ccccc1-c1c2ccc(=O)cc-2oc2cc([O-])ccc12.[Na+].[Na+] [Na-Fluorescein, sodium fluorescein]		70-80%	without morphological details of the CNV	good			poor	about 5 minutes	without the morphological details of the CNV and the detachment	about two	without the morphological detail of the CNV	≤ 10	2-5 minutes,	without the morphological details of the CNV and the hemorrhage						
fluorescein isothiocyanate dextran [FITC-Dextran]			able to visualize the newly grown blood vessels with details of the CNV	best	>60	>60	best		the morphological nature of the newly grown vasculature and the detachment of the retina were visualized		detailed morphological information of the newly grown vasculature was revealed			able to provide the morphological nature of the newly grown vasculature complicated with retinal hemorrhage	able to visualize both retinal vasculature and choroidal vasculature	super clear and high resolution angiograms	up to 2 hours	able to visualize the new blood vessels grown from choroidal	>1	>3600
